Common to all, as to assay type: cell-based
The target of assay [1] is T1, 17-beta-hydroxysteroid dehydrogenase type 2 (Homo sapiens) (UniProt P37059).
T1 sequence (whole entry): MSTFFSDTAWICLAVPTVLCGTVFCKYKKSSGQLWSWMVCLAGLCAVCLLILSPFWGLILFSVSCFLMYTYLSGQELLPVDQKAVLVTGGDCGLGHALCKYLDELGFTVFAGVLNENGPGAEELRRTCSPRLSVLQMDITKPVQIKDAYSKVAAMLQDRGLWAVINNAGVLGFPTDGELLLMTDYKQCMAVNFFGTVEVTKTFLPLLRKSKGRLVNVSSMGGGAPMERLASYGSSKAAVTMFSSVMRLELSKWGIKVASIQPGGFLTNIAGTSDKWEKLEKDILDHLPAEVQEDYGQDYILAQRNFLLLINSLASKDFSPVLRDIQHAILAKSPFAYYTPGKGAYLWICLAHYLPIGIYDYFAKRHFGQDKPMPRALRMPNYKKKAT
As to the kind of experiment: Inhibitory activity against 17 beta hydroxysteroid dehydrogenase type 2 at 10 uM in MDA-MB-231 cells.

For assay [2], the target named is T2, 17-beta-hydroxysteroid dehydrogenase type 1 (Homo sapiens, UniProt P14061).
T2 sequence (P14061 whole entry): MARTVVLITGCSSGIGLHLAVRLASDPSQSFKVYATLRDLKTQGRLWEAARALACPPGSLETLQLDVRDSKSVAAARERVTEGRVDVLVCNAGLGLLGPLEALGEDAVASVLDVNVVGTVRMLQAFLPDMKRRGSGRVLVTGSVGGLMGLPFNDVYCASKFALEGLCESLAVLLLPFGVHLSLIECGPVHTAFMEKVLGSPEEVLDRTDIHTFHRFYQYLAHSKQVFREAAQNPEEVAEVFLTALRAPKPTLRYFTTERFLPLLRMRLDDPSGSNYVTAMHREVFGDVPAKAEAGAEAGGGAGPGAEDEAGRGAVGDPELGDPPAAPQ
The assay is described as follows: Inhibitory activity against 17 beta hydroxysteroid dehydrogenase type 1 in T47D cells.

The target of assay [3] is T3, 17-beta-hydroxysteroid dehydrogenase type 1 (Homo sapiens) (UniProt P14061).
T3 sequence (whole entry): T2 sequence (P14061 whole entry)
The assay is described as follows: Inhibitory activity against 17 beta hydroxysteroid dehydrogenase type 1 at 10 uM in T47D cells.

`COc1cc2c(cc1O)CCC1[C@@H]2CC[C@]2(C)C(=O)C(CC(=O)NCc3cccnc3)C[C@@H]12` (single isomer, unassigned): the inhibition in assay [1] was found to be 0%; in assay [3], 96%. In assay [2], this compound returned a 50% inhibitory concentration (IC50) of 290 nM.
The corresponding values for `C[C@]12CC[C@@H]3c4ccc(O)cc4CCC3[C@@H]1CC(CC(=O)NCc1cccnc1)C2=O` (single isomer, unassigned) are 26%, 97% and 37 nM.
On the same counts, the results for `CCc1cc2c(cc1O)CCC1[C@@H]2CC[C@]2(C)C(=O)C(CC(=O)NCc3cccnc3)C[C@@H]12` (single isomer, unassigned) are -5%, 99% and 27 nM.
